Test results: patent US20090215748A1, “FXR agonists for treating vitamin D associated diseases” (Wyeth, priority 2007, published 2009)

Legend:
Assay type in all cases: in vivo
CYP27B1 [1] = assay: Gene profiling of kidneys isolated from KKAy mice treated with Compound A
Method: To examine the role of FXR in the kidney, gene-profiling experiments were performed using kidneys isolated from KKAy mice treated with Compound A. Genes involved in vitamin D synthesis, calcium mobilization, amino acid metabolism, inflammation, oxidative phosphorylation, and nitric oxide production were regulated by Compound A treatment. […] The CYP27B1 gene, expressed in the proximal tubes of the kidney, encodes 25-hydroxyvitamin D3 1α-hydroxylase, which generates the active form of vitamin D, 1α,25-dihydroxyvitamin D3, from a proform of vitamin D, 25 hydroxyvitamin D3.

OVX rats = assay: OVX-induced bone loss in OVX rats; details: 3 and 30 mg/kg, 6-10 weeks of treatment
From the text: OVX rats are rats subjected to bilateral ovariectomy, which results in development of osteopenia. Two studies have been conducted to evaluate the effect of one of the FXR agonists disclosed herein, isopropyl 3-(3,4-difluorobenzoyl)-1,1-dimethyl-1,2,3,6-tetrahydroazepino[4,5-b]-indole-5-carboxylate, in OVX rats. […] The exposure level of the compound in bone tissue of the rats was not studied and the EC50 of the compound in bone cells was not studied. Accordingly, the reason for the absence of an observable effect has not been determined.

CYP27B1 [2] = assay: CYP27B1 expression in wild (WT) mice, 7 day treatment (FIG. 1)
MMP-14 = MMP-14 gene expression in chow fed KKAy mice, 7 day treatment (FIG. 5)
CYP27B1 [3] = assay: CYP27B1 expression in FXR deficient (FXR KO) mice, 7 day treatment (FIG. 1)
CYP27B1 [4] = assay: CYP27B1 gene expression in chow fed KKAy mice, 7 day treatment (FIG. 4)
KKAy mice [5] = assay: Hepatic lipid metabolism and deposition in the KKAy model of diabetic nephropathy
From the text: The KKAy mice are diabetic mice characterized by hyperglycemia and insulin resistance and are renally impaired with nodular glomerulosclerosis, mesangial proliferation, and abuminuria that increases with age or with a high cholesterol diet. Abnormal lipid metabolism and renal lipid accumulation may contribute to diabetic nephropathy. Administration of FXR agonist, Compound A (isopropyl 3-(3,4-difluorobenzoyl)-1,1-dimethyl-1,2,3,6-tetrahydroazepino[4,5-b]indole-5-carboxylate) improves hepatic lipid metabolism and deposition in the KKAy model of diabetic nephropathy.

renin = assay: Renal renin gene expression in KKAy mice, 4 weeks treatment (FIG. 6); details: once a day for 4 weeks
From the text: Vitamin D and its receptor vitamin D receptor (VDR) may regulate the cardiovascular system. VDR deficient and CYP27B1 deficient mice have increased blood pressure and left ventricle hypertrophy.

KKAy mice [6] = assay: Serum creatinine level in KKAy mice, 7 days oral dosing (FIG. 3); details: orally once a day for seven days, not statistically significant

CC(C)OC(=O)C1=CN(C(=O)c2ccc(F)c(F)c2)CC(C)(C)c2c1[nH]c1ccccc21 [Compound A, isopropyl 3-(3,4-difluorobenzoyl)-1,1-dimethyl-1,2,3,6-tetrahydroazepino[4,5-b]indole-5-carboxylate]
CYP27B1 gene expression (CYP27B1 [1]): upregulated
effect on preventing or restoring OVX-induced bone loss (OVX rats): did not show any effect
expression of CYP27B1, induction (CYP27B1 [2]): 15 fold
MMP-14 gene expression (MMP-14): decreased
effect on the expression of CYP27B1 (CYP27B1 [3]): No effect
CYP27B1 gene expression (CYP27B1 [4]): upregulated
hepatic lipid metabolism and deposition (KKAy mice [5]): improves
renal renin gene expression (renin): significant reduction
reduction in serum creatinine levels (KKAy mice [6]): 20%
